Peptide text beside a SMILES is read from it. * marks the point of attachment. Biotin = O=C1N[C@H]2[C@H](CS[C@H]2CCCCC(=O)*)N1
Experiments:
A. baumannii = type: cell-based
Method in brief: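 Laboratory strains and 50 clinical isolates of A. baumannii were tested by CLSI broth microdilution, with serially diluted peptide (0.1-64 μg) and about 1×10^5 C.F.U. per well, incubated aerobically overnight at 35±2° C. MIC was read visually. MBC came from subculturing clear wells, as ≥99.9% inoculum reduction.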

human RBC = assay: Hemolysis of RBC; type: cell-based
Experimental: Varying amounts of peptide were incubated with the washed RBC for one hour at room temperature. Intact cells were pelleted by gentle centrifugation, and hemolysis of each sample was determined by absorption measurement at 450 nm. A positive control sample consisted of RBC lysed by the addition of 0.1% Triton, for which hemolysis was also determined by absorption measurement at 450 nm. Percentages of lysed RBC incubated with peptide were then calculated by the ratio of absorbances at 450 nm for the sample relative to the absorbance at 450 nm of the positive control sample. The MHC10 value was calculated as the minimum peptide concentration to induce 10% cell lysis.

[1] = Cytotoxicity against Jurkat cells (CellTiter Blue); type: cell-based, human; conditions: human
Experimental: (§1) The cytotoxicities of selected peptides against human T-lymphocytes, in particular Jurkat cells, was determined by growing 100 uL Jurkat cells in RPMI (approx. 5×10^5 cells/ml density) overnight at 37° C. under 5% CO2 atmosphere, in microtiter plate wells, in the presence and absence of peptides. Control reactions either lacked peptide (negative cytotoxicity control), or contained a buffer to completely lyse Jurkat cells (positive cytotoxicity control). The viabilities of cells were then determined by addition of 20 uL CellTiter Blue dye (Promega) to each well, and incubation of cells for a further 3 hrs at 37° C. Fluorescence values were measured for 1 sec at 540 nm/615 nm, and expressed relative to fluorescence values for negative and positive cytotoxicity control samples. Comparison with a fully lysed control allowed the calculation of a percentage killing for each peptide concentration. The MCC10 value was calculated as the minimum peptide concentration required to induce 10% cytotoxicity.

Jurkat cells = assay: Cytotoxicity against Jurkat cells (CellTiter Blue); type: cell-based, human
Experimental: as §1

[2] = system: Escherichia coli strain BL21; type: cell-based; conditions: summary of Table 6
Experimental: Synthetic peptides were tested for their ability to inhibit bacterial growth in liquid culture. […] 19606, Acinetobacter spp. ATCC 17903, Acinetobacter spp. ATCC 19004, Escherichia coli strain BL21, S. aureus, S. typhimurium strain AroA, P. aeruginosa or P. pneumotropica. After 5-6 hours of shaking at 37° C., growth was measured as absorbance at 595 nm. As a control, cultures were grown in the presence of 0.1% acetonitrile (i.e., the concentration present in 10 μM peptide).

Molecule | MIC (μM) for non-amidated Peptide (A. baumannii) | MHC10 (human RBC) | cytotoxicity at 12.5 μM [1] | cytotoxicity at 25 μM [1] | cytotoxicity at 50 μM [1] | MCC10 (Jurkat cells) | inhibition of growth of E. coli [2]
CC(C)C[C@H](NC(=O)[C@H](CCC(N)=O)NC(=O)[C@H](CCCNC(=N)N)NC(=O)[C@H](Cc1ccccc1)NC(=O)[C@H](Cc1ccc(O)cc1)NC(=O)[C@H](CC(C)C)NC(=O)[C@H](Cc1c[nH]c2ccccc12)NC(=O)[C@H](Cc1ccccc1)NC(=O)[C@H](CCCNC(=N)N)NC(=O)[C@H](CCCNC(=N)N)NC(=O)[C@H](CO)NC(=O)[C@H](CC(=O)O)NC(=O)[C@H](CC(C)C)NC(=O)[C@H](Cc1c[nH]c2ccccc12)NC(=O)[C@H](Cc1ccccc1)NC(=O)[C@H](CC(=O)O)NC(=O)[C@H](CCCNC(=N)N)NC(=O)[C@H](CCCNC(=N)N)NC(=O)[C@H](C)NC(=O)[C@H](CCC(N)=O)NC(=O)[C@H](CO)NC(=O)[C@H](CCCNC(=N)N)NC(=O)CCCC[C@@H]1SC[C@@H]2NC(=O)N[C@@H]21)C(=O)N[C@@H](Cc1ccccc1)C(=O)O [Ac474] (Biotin-RSQARRDFWLDSRRFWLYFRQLF-OH) | 25 µM | 5 µM | 13% | 20% | 81% | 10 µM | 
CC[C@H](C)[C@H](NC(=O)[C@H](Cc1ccccc1)NC(=O)[C@H](CC(C)C)NC(=O)[C@H](CCC(N)=O)NC(=O)[C@H](CCCNC(=N)N)NC(=O)[C@H](Cc1ccccc1)NC(=O)[C@H](Cc1ccc(O)cc1)NC(=O)[C@H](CC(C)C)NC(=O)[C@H](Cc1c[nH]c2ccccc12)NC(=O)[C@H](Cc1ccccc1)NC(=O)[C@H](CCCNC(=N)N)NC(=O)[C@H](CCCNC(=N)N)NC(=O)[C@H](CO)NC(=O)[C@H](CC(=O)O)NC(=O)[C@H](CC(C)C)NC(=O)[C@H](Cc1c[nH]c2ccccc12)NC(=O)[C@H](Cc1ccccc1)NC(=O)[C@H](CC(=O)O)NC(=O)[C@H](CCCNC(=N)N)NC(=O)CCCC[C@@H]1SC[C@@H]2NC(=O)N[C@@H]21)C(=O)N[C@@H](Cc1c[nH]cn1)C(=O)N[C@@H](CC(N)=O)C(=O)N1CCC[C@H]1C(=O)N[C@@H](CCCCN)C(=O)O [Ac475] (Biotin-RDFWLDSRRFWLYFRQLFIHNPK-OH) | 15 µM | 10 µM | 4% | 4% | 60% | 35 µM | 
CC[C@H](C)[C@H](NC(=O)[C@H](Cc1ccccc1)NC(=O)[C@H](CC(C)C)NC(=O)[C@H](CCC(N)=O)NC(=O)[C@H](CCCNC(=N)N)NC(=O)[C@H](Cc1ccccc1)NC(=O)[C@H](Cc1ccc(O)cc1)NC(=O)[C@H](CC(C)C)NC(=O)[C@H](Cc1c[nH]c2ccccc12)NC(=O)[C@H](Cc1ccccc1)NC(=O)[C@H](CCCNC(=N)N)NC(=O)[C@H](CCCNC(=N)N)NC(=O)[C@H](CO)NC(=O)[C@H](CC(=O)O)NC(=O)CCCC[C@@H]1SC[C@@H]2NC(=O)N[C@@H]21)C(=O)N[C@@H](Cc1c[nH]cn1)C(=O)N[C@@H](CC(N)=O)C(=O)N1CCC[C@H]1C(=O)N[C@@H](CCCCN)C(=O)N[C@H](C(=O)N1CCC[C@H]1C(=O)N[C@H](C(=O)N[C@H](C(=O)N1CCC[C@H]1C(=O)O)[C@@H](C)O)[C@@H](C)CC)[C@@H](C)O [Ac476] (Biotin-DSRRFWLYFRQLFIHNPKTPITP-OH) | 5 µM | 50 µM | 12% | 18% | 44% | 10 µM | 
tachyplesin-1 [reference compound] |  |  |  |  |  |  | inhibited growth of E. coli significantly

Further lines, with some results ahead:

MIC (μM) for non-amidated Peptide (A. baumannii) | Molecule | MHC10 (human RBC) | cytotoxicity at 12.5 μM [1] | cytotoxicity at 25 μM [1] | cytotoxicity at 50 μM [1] | MCC10 (Jurkat cells) | inhibition of growth of E. coli [2]
12.5 µM | CC[C@H](C)[C@H](NC(=O)[C@H](Cc1c[nH]c2ccccc12)NC(=O)[C@H](CCCNC(=N)N)NC(=O)[C@H](CO)NC(=O)[C@H](CCCNC(=N)N)NC(=O)[C@H](CCCNC(=N)N)NC(=O)[C@H](CO)NC(=O)[C@H](CCCNC(=N)N)NC(=O)[C@H](CCCNC(=N)N)NC(=O)[C@H](Cc1ccc(O)cc1)NC(=O)CNC(=O)CCCC[C@@H]1SC[C@@H]2NC(=O)N[C@@H]21)C(=O)N[C@@H](CS)C(=O)N[C@@H](CO)C(=O)N[C@@H](CCSC)C(=O)N[C@@H](C)C(=O)N[C@@H](CCCNC(=N)N)C(=O)N[C@@H](CCCNC(=N)N)C(=O)N[C@@H](CO)C(=O)N[C@@H](CCCNC(=N)N)C(=O)N[C@@H](CCCNC(=N)N)C(=O)N[C@@H](CCCNC(=N)N)C(=O)N[C@@H](CCCNC(=N)N)C(=O)N1CCC[C@H]1C(=O)O [Ac389] (Biotin-GYRRSRRSRWICSMARRSRRRRP-OH) | 50 µM | 0% | 34% | 95% | 15 µM | 
15 µM | CC[C@H](C)[C@H](NC(=O)[C@H](Cc1c[nH]cn1)NC(=O)[C@H](CO)NC(=O)[C@H](CC(C)C)NC(=O)[C@H](CS)NC(=O)[C@H](CS)NC(=O)[C@H](CCCNC(=N)N)NC(=O)[C@H](CCSC)NC(=O)[C@@H](NC(=O)[C@@H]1CCCN1C(=O)[C@H](CCC(N)=O)NC(=O)[C@H](Cc1c[nH]cn1)NC(=O)[C@H](CS)NC(=O)CCCC[C@@H]1SC[C@@H]2NC(=O)N[C@@H]21)[C@@H](C)O)C(=O)N[C@@H](CCCNC(=N)N)C(=O)N[C@@H](CCCNC(=N)N)C(=O)N[C@@H](CCCNC(=N)N)C(=O)N[C@@H](Cc1ccccc1)C(=O)N[C@@H](CCCNC(=N)N)C(=O)N[C@@H](CC(C)C)C(=O)O [Ac431] (Biotin-CHQPTMRCCLSHIRRRFRL-OH; N-terminus and C-terminus assumed) | 25 µM | 4% | 15% | 29% | 20 µM | 
10 µM | CC[C@H](C)[C@H](NC(=O)[C@H](CCC(N)=O)NC(=O)[C@H](CCCNC(=N)N)NC(=O)[C@@H](NC(=O)[C@@H](NC(=O)[C@@H]1CCCN1C(=O)[C@@H]1CCCN1C(=O)[C@H](CCSC)NC(=O)[C@H](CCCNC(=N)N)NC(=O)[C@H](CC(N)=O)NC(=O)[C@@H](NC(=O)CNC(=O)[C@H](Cc1c[nH]c2ccccc12)NC(=O)CCCC[C@@H]1SC[C@@H]2NC(=O)N[C@@H]21)C(C)C)C(C)C)C(C)C)C(=O)N[C@@H](CC(C)C)C(=O)N[C@@H](CCCNC(=N)N)C(=O)N[C@@H](CO)C(=O)N[C@@H](CCC(=O)O)C(=O)N[C@@H](Cc1c[nH]c2ccccc12)C(=O)N[C@@H](CCCNC(=N)N)C(=O)N[C@@H](CC(N)=O)C(=O)N[C@@H](Cc1c[nH]c2ccccc12)C(=O)N[C@@H](CCCNC(=N)N)C(=O)N[C@@H](CCCCN)C(=O)O [Ac436] (Biotin-WGVNRMPPVVRQILRSEWRNWRK-OH) | 75 µM | 6% | 10% | 32% | 25 µM | 

Source: US20110262508A1, “ANTIMICROBIAL COMPOSITIONS, FORMULATIONS AND USES THEREOF” (priority 2007, published 2011)
